# Target: T1, Monoamineoxidase B type human-derived enzyme (Homo sapiens, UniProt P27338)
# T1 sequence (P27338 1-520): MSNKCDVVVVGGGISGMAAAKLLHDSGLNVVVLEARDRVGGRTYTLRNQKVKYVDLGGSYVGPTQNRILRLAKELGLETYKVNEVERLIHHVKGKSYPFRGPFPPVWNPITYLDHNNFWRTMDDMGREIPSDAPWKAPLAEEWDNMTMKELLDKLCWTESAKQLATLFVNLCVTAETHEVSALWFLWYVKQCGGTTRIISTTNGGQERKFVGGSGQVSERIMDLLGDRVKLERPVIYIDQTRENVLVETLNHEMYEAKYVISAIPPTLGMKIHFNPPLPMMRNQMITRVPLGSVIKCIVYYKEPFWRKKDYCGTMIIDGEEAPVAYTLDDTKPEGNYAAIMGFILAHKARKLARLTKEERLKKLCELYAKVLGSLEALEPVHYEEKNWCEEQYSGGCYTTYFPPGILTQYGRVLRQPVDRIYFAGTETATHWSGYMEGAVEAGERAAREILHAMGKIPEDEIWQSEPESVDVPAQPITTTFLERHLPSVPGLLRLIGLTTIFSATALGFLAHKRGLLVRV
# Assay: Inhibitory effects on the activity of MAO-B (Amplex Red fluorescence, benzylamine substrate)
# Format: biochemical
# Conditions: read-out: Inhibitory effects (%) on the activity of MAO-B
# Experimental: Monoamineoxidase A or B type human-derived enzyme (5 mg/ml) was each diluted with 0.05 M sodium phosphate buffer (pH 7.4) to yield a dilution of 1:200, and then 100 μl of an enzyme buffer containing 2 μl of a compound 1 solution at the corresponding concentration was placed in a test plate (flat-bottom) and incubated for 30 minutes.
# 100 μl of a working buffer containing 400 μM of Amplex Red reagent, 2 U/ml horseradish peroxidase, and 2 mM substrate (tyramine for MAO-A and benzylamine for MAO-B) in 0.05 M sodium phosphate buffer (pH 7.4) was mixed with a pre-incubated enzyme buffer at 1:1 and measured using fluorescence (EX: 563 nm & EM: 587 nm) for 30 minutes.
row,Compound,inhibition at 0.01 µM [%]
1,"NC(=O)OCc1cc(-c2ccc(OCC3CCCC3)cc2)no1 [Example 193, Carbamic acid 3-(4-cyclopentylmethoxy-phenyl)-isoxazol-5-ylmethyl ester]",88.1

# Same assay, conditions: treatment concentration 10 nM
row,Compound,Inhibitory effects (%) on the activity of MAO-B [%]
1,"CC(C)(C)[N+]([O-])=Cc1cccc(COc2ccc(-c3cc(COC(N)=O)on3)cc2)c1 [Example 204, carbamic acid 3-{4-[3-(t-butylnitronyl)-benzyloxy]-phenyl}-isoxazol-5-ylmethyl ester]",98.8

# Same assay, conditions: treatment concentration 10 nM; read-out: Inhibitory effects (%) on the activity of MAO-B
row,Compound,inhibition at 0.01 µM [%]
1,"c1ccc(COc2ccc(-c3cc(Cn4cncn4)on3)cc2)cc1 [Example 144, 1-[3-(4-benzyloxy-phenyl)-isoxazol-5-ylmethyl]-1H-[1,2,4]triazole]",97.3
2,"NC(=O)OCc1cc(-c2ccc(OCc3ccc(F)cc3)cc2)no1 [Example 13, carbamic acid 3-[4-(4-fluoro-benzyloxy)-phenyl]-isoxazol-5-ylmethyl ester]",102
3,"NC(=O)OCc1cc(-c2ccc(OCc3cccc(C(F)(F)F)c3)cc2)no1 [Example 19, carbamic acid 3-[4-(3-trifluoromethyl-benzyloxy)-phenyl]-isoxazol-5-ylmethyl ester]",94.2
4,"NC(=O)OCc1cc(-c2ccc(OCc3ccc(F)c(F)c3)cc2)no1 [Example 17, carbamic acid 3-[4-(3,4-difluoro-benzyloxy)-phenyl]-isoxazol-5-ylmethyl ester]",96.8
5,"NC(=O)OCc1cc(-c2ccc(OCc3ccc(C=O)cc3)cc2)no1 [Example 36, carbamic acid 3-[4-(4-formyl-benzyloxy)-phenyl]-isoxazol-5-ylmethyl ester]",90.1
6,"Clc1ccc(COc2ccc(-c3cc(Cn4ccnc4)on3)cc2)cc1 [Example 157, 3-[4-(4-chloro-benzyloxy)-phenyl]-5-imidazol-1-ylmethyl-isoxazole]",37.2
7,"Cc1ccccc1CNc1ccc(-c2cc(COC(N)=O)on2)cc1 [Example 99, Carbamic acid 3-[4-(2-methyl-benzylamino)-phenyl]-isoxazol-5-ylmethyl ester]",79.7
8,"NC(=O)OCc1cc(-c2ccc(OCc3ccc4c(c3)OCO4)cc2)no1 [Example 203, carbamic acid 3-[4-(benzo[1,3]dioxol-5-ylmethoxy)-phenyl]-isoxazol-5-ylmethyl ester]",93
9,"NC(=O)OCc1cc(-c2ccc(NCc3c(Cl)ccc(Cl)c3Cl)cc2)no1 [Example 95, carbamic acid 3-[4-(2,3,6-trichloro-benzylamino)-phenyl]-isoxazol-5-ylmethyl ester]",24.3
10,"NC(=O)OCc1cc(-c2ccc(OCc3c(Cl)cccc3Cl)cc2)no1 [Example 23, carbamic acid 3-[4-(2,6-dichlorobenzyloxy)-phenyl]-isoxazol-5-ylmethyl ester]",92.7
11,"COc1c(C)cc(COc2ccc(-c3cc(COC(N)=O)on3)cc2)nc1C [Example 68, Carbamic acid 3-[4-(5-methoxy-4,6-dimethyl-pyridin-2-ylmethoxy)-phenyl]-isoxazol-5-ylmethyl ester]",63.4
12,"CC(OC(N)=O)c1cc(-c2ccc(OCc3ccccc3)cc2)no1 (centres unmarked) [Example 117, carbamic acid 1-[3-(4-benzyloxy-phenyl)-isoxazol-5-yl]-ethyl ester]",68.5
13,"NC(=O)OCc1cc(-c2ccc(NCc3cc(F)ccc3F)cc2)no1 [Example 83, Carbamic acid 3-[4-(2,5-difluoro-benzylamino)-phenyl]-isoxazol-5-ylmethyl ester]",54.9
14,"NC(=O)OCc1cc(-c2ccc(NCc3ccc(Cl)c(Cl)c3)cc2)no1 [Example 92, carbamic acid 3-[4-(3,4-dichloro-benzylamino)-phenyl]-isoxazol-5-ylmethyl ester]",75.2
15,"COCCNCc1cc(-c2ccc(OCc3ccccc3)cc2)no1 [Example 174, [3-(4-benzyloxy-phenyl)-isoxazol-5-ylmethyl]-(2-methoxy-ethyl)-amine]",52.7
16,"NC(=O)OCc1cc(-c2ccc(NCc3ccccc3Cl)cc2)no1 [Example 86, Carbamic acid 3-[4-(2-chloro-benzylamino)-phenyl]-isoxazol-5-ylmethyl ester]",83.3

row,Compound,inhibition at 0.01 µM [%]
1,"COC(=O)c1ccc(COc2ccc(-c3cc(COC(N)=O)on3)cc2)cc1 [Example 27, 4-[4-(5-carbamoyloxymethyl-isoxazol-3-yl)-phenoxymethyl]-benzoic acid methyl ester]",75.2
2,"CN(C)NC(=O)OCc1cc(-c2ccc(OCc3ccccc3)cc2)no1 [Example 129, N′,N′-dimethyl-hydrazinecarboxylic acid 3-(4-benzyloxy-phenyl)-isoxazol-5-ylmethyl ester]",22
3,"NC(=O)OCc1cc(-c2ccc(OCc3c(F)cc(F)cc3F)cc2)no1 [Example 18, carbamic acid 3-[4-(2,4,6-trifluoro-benzyloxy)-phenyl]-isoxazol-5-ylmethyl ester]",91.5
4,"NC(=O)OCc1cc(-c2ccc(OCc3cccc(C=O)c3)cc2)no1 [Example 35, carbamic acid 3-[4-(3-formyl-benzyloxy)-phenyl]-isoxazol-5-ylmethyl ester]",90.4
5,"Cc1cccc(COc2ccc(-c3cc(COC(N)=O)on3)cc2)c1 [Example 200, carbamic acid 3-[4-(3-methyl-benzyloxy)-phenyl]-isoxazol-5-ylmethyl ester]",87.6
6,"NC(=O)OCc1cc(-c2ccc(NCc3c(Cl)cccc3Cl)cc2)no1 [Example 91, carbamic acid 3-[4-(2,6-dichloro-benzylamino)-phenyl]-isoxazol-5-ylmethyl ester]",73.1
7,"C#CCN(C)Cc1cc(-c2ccc(OCc3ccccc3)cc2)no1 [Example 178, [3-(4-benzyloxy-phenyl)-isoxazol-5-ylmethyl]-methyl-prop-2-ynyl-amine]",64
8,"CC(C)c1nccn1Cc1cc(-c2ccc(OCc3ccccc3)cc2)no1 [Example 179, 3-(4-benzyloxy-phenyl)-5-(2-isopropyl-imidazol-1-ylmethyl)-isoxazole]",26.7
9,"CCc1nc(C)cn1Cc1cc(-c2ccc(OCc3ccccc3)cc2)no1 [Example 186, 3-(4-benzyloxy-phenyl)-5-(2-ethyl-4-methyl-imidazol-1-ylmethyl)-isoxazole]",51.2
10,"NC(=O)OCc1cc(-c2ccc(NCc3ccc(Cl)cc3Cl)cc2)no1 [Example 89, carbamic acid 3-[4-(2,4-dichloro-benzylamino)-phenyl]-isoxazol-5-ylmethyl ester]",54.7
11,"COc1cccc(COc2ccc(-c3cc(COC(N)=O)on3)cc2)c1 [Example 30, Carbamic acid 3-[4-(3-methoxy-benzyloxy)-phenyl]-isoxazol-5-ylmethyl ester]",90.2
12,"Fc1ccc(COc2ccc(-c3cc(Cn4ccnc4)on3)cc2)c(F)c1 [Example 154, 3-[4-(2,4-difluoro-benzyloxy)-phenyl]-5-imidazol-1-ylmethyl-isoxazole]",82.7
13,"Cc1ccc(CNc2ccc(-c3cc(COC(N)=O)on3)cc2)c(C)c1 [Example 103, Carbamic acid 3-[4-(2,4-dimethyl-benzylamino)-phenyl]-isoxazol-5-ylmethyl ester]",20.7
14,"c1ccc(COc2ccc(-c3cc(Cn4ncnn4)on3)cc2)cc1 [Example 146, 2-[3-(4-benzyloxy-phenyl)-isoxazol-5-ylmethyl]-2H-tetrazole]",86
15,"CC(Oc1ccc(-c2cc(COC(N)=O)on2)cc1)c1ccccc1 (centres unmarked) [Example 10, carbamic acid 3-[4-(1-phenyl-ethoxy)-phenyl]-isoxazol-5-ylmethyl ester]",98.2
16,"c1ccc(COc2ccc(-c3cc(Cn4ccnc4)on3)cc2)cc1 [Example 139, 3-(4-benzyloxy-phenyl)-5-imidazol-1-ylmethyl-isoxazole]",84.6

# Same assay, conditions: treatment concentration 100 nM
row,Compound,inhibition at 0.1 µM [%]
1,"NC(=O)OCc1cc(-c2ccc(OCc3ccc(C(F)(F)F)cc3)cc2)no1 [Example 202, carbamic acid 3-[4-(4-trifluoromethyl-benzyloxy)-phenyl]-isoxazol-5-ylmethyl ester]",95.5
2,"NC(=O)OCc1cc(-c2ccc(OCc3cccc(C(F)(F)F)c3)cc2)no1 [Example 31, Carbamic acid 3-[4-(3-trifluoromethyl-benzyloxy)-phenyl]-isoxazol-5-ylmethyl ester]",96.2
3,"NC(=O)OCc1cc(-c2ccc(OCc3ccc(F)cc3F)cc2)no1 [Example 196, carbamic acid 3-[4-(2,4-difluoro-benzyloxy)-phenyl]-isoxazol-5-ylmethyl ester]",97.1
4,"NC(=O)OCc1cc(-c2ccc(OCc3cc(F)ccc3F)cc2)no1 [Example 197, carbamic acid 3-[4-(2,5-difluoro-benzyloxy)-phenyl]-isoxazol-5-ylmethyl ester]",96.7

# Source: US8828992B2, “Substituted azole derivatives, pharmaceutical composition containing the derivatives, and method for treating Parkinson's disease using the same” (priority 2009, dated 2014)
